One test has as its target Recombinant human c-Src (Homo sapiens (Human), UniProt P12931). In words: Src kinase inhibition in vitro (luciferase-based residual ATP, KinaseGlo). The format is biochemical. Conditions: ATP 3 μM, PTK2 substrate, 90 minutes at room temperature. On the procedure:
(§1) The ability of compounds of the present invention to inhibit the activity of three groups of kinases was tested. Kinases tested included the src family (primarily src and yes), some angiogenic growth factor receptors (Fgfr1, Vegfr, and Pdgfrβ) and the ephrin, EphB4. All kinase reactions were conducted in 96-well plates with a final reaction volume of 50 ul.
After reacting for about 90 minutes at room temperature, residual ATP was determined using a luciferase-based assay (KinaseGlo, Promega Corp.) as a measure of kinase activity. Data from four wells were then averaged and used to determine IC50 values for the test compounds (Prism software package, GraphPad Software, San Diego Calif.).
(§2) The test results for inhibition of Src kinase are presented in Table 1, and the test results for inhibition of some other kinases (i.e., Yes, EphB4, and Pdgfrβ) are presented in Table 2.
Recombinant human c-Src, sequence (P12931 whole entry, looked up): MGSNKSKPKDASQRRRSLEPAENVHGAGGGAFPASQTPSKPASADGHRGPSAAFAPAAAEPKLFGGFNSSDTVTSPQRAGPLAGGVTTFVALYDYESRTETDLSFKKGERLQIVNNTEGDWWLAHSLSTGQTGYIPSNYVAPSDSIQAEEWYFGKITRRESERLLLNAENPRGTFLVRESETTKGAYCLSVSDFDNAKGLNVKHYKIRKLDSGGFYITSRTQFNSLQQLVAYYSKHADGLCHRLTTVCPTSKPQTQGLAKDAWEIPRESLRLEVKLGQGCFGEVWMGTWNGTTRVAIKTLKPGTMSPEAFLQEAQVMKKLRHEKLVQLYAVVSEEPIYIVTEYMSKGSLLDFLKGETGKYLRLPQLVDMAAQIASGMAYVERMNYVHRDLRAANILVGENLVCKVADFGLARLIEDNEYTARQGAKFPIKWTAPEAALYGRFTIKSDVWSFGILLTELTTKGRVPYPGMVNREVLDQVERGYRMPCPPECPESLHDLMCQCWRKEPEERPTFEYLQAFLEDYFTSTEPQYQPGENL
Pdgfrβ, sequence (P09619 33-1106): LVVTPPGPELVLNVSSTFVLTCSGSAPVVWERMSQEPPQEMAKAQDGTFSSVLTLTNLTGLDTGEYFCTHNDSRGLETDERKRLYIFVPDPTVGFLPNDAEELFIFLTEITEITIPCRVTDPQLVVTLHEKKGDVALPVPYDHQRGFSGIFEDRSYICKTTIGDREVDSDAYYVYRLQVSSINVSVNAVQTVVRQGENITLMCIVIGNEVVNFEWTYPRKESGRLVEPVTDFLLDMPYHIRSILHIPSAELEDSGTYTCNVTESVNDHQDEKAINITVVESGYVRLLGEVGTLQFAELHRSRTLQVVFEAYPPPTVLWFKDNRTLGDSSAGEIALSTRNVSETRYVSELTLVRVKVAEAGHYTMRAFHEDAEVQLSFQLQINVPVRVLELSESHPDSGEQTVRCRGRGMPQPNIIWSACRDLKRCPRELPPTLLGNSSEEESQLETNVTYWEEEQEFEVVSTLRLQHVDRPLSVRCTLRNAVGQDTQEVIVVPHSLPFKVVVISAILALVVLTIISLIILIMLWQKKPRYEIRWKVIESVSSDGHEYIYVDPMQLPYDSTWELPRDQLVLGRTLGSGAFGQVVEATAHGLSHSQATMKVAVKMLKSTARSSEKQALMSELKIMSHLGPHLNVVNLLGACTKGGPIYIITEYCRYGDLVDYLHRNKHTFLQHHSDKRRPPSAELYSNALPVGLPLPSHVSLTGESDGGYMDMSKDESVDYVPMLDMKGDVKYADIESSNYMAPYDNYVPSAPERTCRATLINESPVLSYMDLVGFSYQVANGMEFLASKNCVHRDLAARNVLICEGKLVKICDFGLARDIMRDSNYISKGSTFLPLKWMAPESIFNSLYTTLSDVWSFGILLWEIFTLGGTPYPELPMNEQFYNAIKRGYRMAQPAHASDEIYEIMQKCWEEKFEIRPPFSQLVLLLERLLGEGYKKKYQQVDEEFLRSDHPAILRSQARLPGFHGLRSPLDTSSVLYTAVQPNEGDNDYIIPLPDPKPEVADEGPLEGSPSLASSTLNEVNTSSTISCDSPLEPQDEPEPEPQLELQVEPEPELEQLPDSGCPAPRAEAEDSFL
Regarding `Clc1cccc(Cl)c1-c1ccc2nc(Nc3ccc(OCCN4CCCC4)cc3)nnc2c1` [[7-(2,6-dichloro-phenyl)-benzo[1,2,4]triazin-3-yl]-[4-(2-pyrrolidin-1-yl-ethoxy)-phenyl]-amine], the IC50 worked out at 121 nM. `Cc1cccc(C)c1-c1cc2nnc(Nc3ccccc3)nc2c(C)c1C` [[7-(2,6-dimethyl-phenyl)-5,6-dimethyl-benzo[1,2,4]triazin-3-yl]-phenyl-amine]: the half-inhibitory concentration (IC50) was determined as 130 nM. Regarding `Cc1cccc(C)c1-c1cc(C)c2nc(Nc3cccc(S(=O)(=O)N4CCNCC4)c3)nnc2c1` [[7-(2,6-dimethyl-phenyl)-5-methyl-benzo[1,2,4]triazin-3-yl]-[3-(piperazine-1-sulfonyl)-phenyl]-amine], the concentration for half-maximal inhibition (IC50) stood at 48.2 nM. For `Cc1cccc(C)c1-c1cc(C)c2nc(Nc3ccc(S(=O)(=O)N4CCN(C)CC4)cc3)nnc2c1` [[7-(2,6-dimethyl-phenyl)-5-methyl-benzo[1,2,4]triazin-3-yl]-[4-(4-methyl-piperazine-1-sulfonyl)-phenyl]-amine], the half-inhibitory concentration (IC50) worked out at 137 nM. On to `Cc1cccc(C)c1-c1cc(C)c2nc(Nc3ccccn3)nnc2c1` [[7-(2,6-dimethyl-phenyl)-5-methyl-benzo[1,2,4]triazin-3-yl]-pyridin-2-yl-amine], for which the IC50 is more than 10000 nM. As to `Cc1cccc(C)c1-c1cc(C)c2nc(Nc3ccncc3)nnc2c1` [[7-(2,6-dimethyl-phenyl)-5-methyl-benzo[1,2,4]triazin-3-yl]-pyridine-4-yl-amine], the half-inhibitory concentration (IC50) was 36 nM.

Take `Cc1cccc(C)c1-c1cc(C)c2nc(Nc3cccc4cccnc34)nnc2c1` [[7-(2,6-dimethyl-phenyl)-5-methyl-benzo[1,2,4]triazin-3-yl]-quinolin-8-yl-amine]: the IC50 is more than 10000 nM. Regarding `Cc1cccc(C)c1-c1cc(C)c2nc(Nc3ccc(OCCCN4CCCC4)cc3)nnc2c1` [[7-(2,6-dimethyl-phenyl)-5-methyl-benzo[1,2,4]triazin-3-yl]-{4-(3-pyrrolidin-1-yl-propoxy)-phenyl]-amine], the concentration for half-maximal inhibition (IC50) amounted to 12.6 nM.

As to `Cc1cc2nc(Nc3ccc(OCCN4CCCC4)cc3)nnc2cc1-c1c(C)cccc1C` [[7-(2,6-dimethyl-phenyl)-6-methyl-benzo[1,2,4]triazin-3-yl]-[4-(2-pyrrolidin-1-yl-ethoxy)-phenyl]-amine], the IC50 worked out at 12.3 nM. Turning to `Cc1cccc(C)c1-c1ccc2nc(Nc3ccc(OCCN4CCCC4)cc3)nnc2c1` [[7-(2,6-dimethyl-phenyl)-benzo[1,2,4]triazin-3-yl]-[4-(2-pyrrolidin-1-yl-ethoxy)-phenyl]-amine], the IC50 stood at 15 nM. For the compound `COc1ccc(Cl)c(-c2cc(C)c3nc(Nc4ccc(OCCN5CCCC5)cc4)nnc3c2)c1` [[7-(2-chloro-5-methoxy-phenyl)-5-methyl-benzo[1,2,4]triazin-3-yl]-[4-(2-pyrrolidin-1-yl-ethoxy)-phenyl]-amine], the IC50 worked out at 788 nM. Turning to `COc1cccc(Cl)c1-c1cc(C)c2nc(Nc3ccc(OCCN4CCCC4)cc3)nnc2c1` [[7-(2-chloro-6-methoxy-phenyl)-5-methyl-benzo[1,2,4]triazin-3-yl]-[4-(2-pyrrolidin-1-yl-ethoxy)-phenyl]-amine], the IC50 was 505 nM. The same measure, in the same setting: to `Cc1noc(C)c1-c1cc(C)c2nc(Nc3ccc(OCCN4CCCC4)cc3)nnc2c1` [[7-(3,5-dimethyl-isoxazol-4-yl)-5-methyl-benzo[1,2,4]triazin-3-yl]-[4-(2-pyrrolidin-1-yl-ethoxy)-phenyl]-amine] belongs 207 nM. Regarding `COc1ccc(Cl)cc1-c1cc(C)c2nc(Nc3ccc(OCCN4CCCC4)cc3)nnc2c1` [[7-(5-chloro-2-methoxy-phenyl)-5-methyl-benzo[1,2,4]triazin-3-yl]-[4-(2-pyrrolidin-1-yl-ethoxy)-phenyl]-amine], the half-maximal inhibitory concentration (IC50) worked out at 1200 nM. In the case of `Cc1cc2nc(Nc3ccc(S(=O)(=O)NCCN4CCCC4)cc3)nnc2cc1Br` [[7-Bromo-6-methyl-benzo[1,2,4]triazin-3-ylamino]-N-(2-pyrrolidin-1-yl-ethyl)-benzene-4-sulfonamide], the IC50 was more than 10000 nM.

A further test has as its target Pdgfrβ (Homo sapiens (Human), UniProt P09619). In words: Pdgfrβ kinase inhibition in vitro (luciferase-based residual ATP). The format is biochemical. Conditions: 500 nM ATP, PTK2 peptide, 60 minutes at 37 C; read-out: PDGFR IC50. On the procedure: as §1
Pdgfrβ (0.16 ug/well, Panvera/Invitrogen) 500 nM ATP and the PTK2 peptide (700 uM) were combined with compound and reaction buffer as noted above for src. The reaction was incubated for 60 minutes at 37 C, and the residual ATP concentration was determined using the luciferase-based technique also noted above.
as §2
Consider `Cc1cc(-c2cc(O)ccc2Cl)cc2nnc(Nc3ccc(S(=O)(=O)NCCN4CCCC4)cc3)nc12`, for which the IC50 is 1.7 nM. The same measure, in the same setting: to `Cc1cc2nc(Nc3ccc(S(=O)(=O)NCCN4CCCC4)cc3)nnc2cc1-c1cc(O)ccc1Cl` belongs 1.9 nM; to `Cc1cc(-c2cc(O)ccc2Cl)cc2nnc(Nc3ccc(S(=O)(=O)CCCN4CCCC4)cc3)nc12`, 2.9 nM; to `Cc1cc(O)cc(C)c1-c1cc(C)c2nc(Nc3ccc(OCCN4CCCC4)cc3)nnc2c1`, 41.1 nM.

Turning to `Cc1cccc(C)c1-c1cc(C)c2nc(Nc3nc(C(=O)NCCN4CCCC4)cs3)nnc2c1` [2-[7-(2,6-dimethyl-phenyl)-5-methyl-benzo[1,2,4]triazin-3-ylamino]-thiazole-4-carboxylic acid (2-pyrrolidin-1-yl-ethyl)-amide], the IC50 was 60 nM. As for `Cc1cccc(C)c1-c1cc(C)c2nc(Nc3cccc(S(N)(=O)=O)c3)nnc2c1` [3-[7-(2,6-dimethyl-phenyl)-5-methyl-benzo[1,2,4]triazin-3-ylamino]-benzenesulfonamide], the IC50 is 16.3 nM. Same read-out and setting: to `Cc1cc(-c2cc(O)ccc2Cl)cc2nnc(Nc3cccc(C(=O)NCCN(C)C)c3)nc12` [3-[7-(2-chloro-5-hydroxy-phenyl)-5-methyl-benzo[1,2,4]triazin-3-ylamino]-N-(2-dimethylamino-ethyl)-benzamide] belongs 5.3 nM; to `Cc1cc2nc(Nc3ccc(OCCN4CCCC4)cc3)nnc2cc1-c1cccc(O)c1` [3-{6-methyl-3-[4-(2-pyrrolidin-1-yl-ethoxy)-phenylamino]-benzo[1,2,4]triazin-7-yl}-phenol], 7.4 nM; to `COc1cc2nc(Nc3ccc(S(=O)(=O)NCCN4CCCC4)cc3)nnc2cc1-c1ccccc1C` [4-(6-methoxy-7-o-tolyl-benzo[1,2,4]triazin-3-ylamino)-N-(2-pyrrolidin-1-yl-ethyl)-benzenesulfonamide], 39.3 nM. Turning to `Cc1cc(-c2c(Cl)ccc(O)c2Cl)cc2nnc(Nc3ccc(S(=O)(=O)NCCN4CCCC4)cc3)nc12` [4-[7-(2,6-dichloro-3-hydroxy-phenyl)-5-methyl-benzo[1,2,4]triazin-3-ylamino]-N-(2-pyrrolidin-1-yl-ethyl)-benzenesulfonamide], the IC50 came to 8 nM. Consider `Cc1cc(-c2cc(O)ccc2Cl)cc2nnc(Nc3ccc(S(=O)(=O)N(C)CCN4CCCC4)cc3)nc12` [4-[7-(2-chloro-5-hydroxy-phenyl)-5-methyl-benzo[1,2,4]triazin-3-ylamino]-N-methyl-N-(2-pyrrolidin-1-yl-ethyl)-benzenesulfonamide], for which the IC50 amounted to 3.1 nM. In the case of `Cc1cc(-c2cc(O)ccc2Cl)cc2nnc(Nc3cccc(N(C)C)c3)nc12` [4-chloro-3-[3-(3-dimethylamino-phenylamino)-5-methyl-benzo[1,2,4]triazin-7-yl]-phenol], the IC50 is 20.8 nM.

As for `Cc1cc(-c2cc(O)ccc2Cl)cc2nnc(Nc3ccc(N4CCOCC4)nc3)nc12` [4-chloro-3-[5-methyl-3-(6-morpholin-4-yl-pyridin-3-ylamino)-benzo[1,2,4]triazin-7-yl]-phenol], the 50% inhibitory concentration (IC50) was determined as 2.1 nM. As to `Cc1cc(-c2cc(O)ccc2Cl)cc2nnc(Nc3cccnc3)nc12` [4-chloro-3-[5-methyl-3-(pyridin-3-ylamino)-benzo[1,2,4]triazin-7-yl]-phenol], the half-maximal inhibitory concentration (IC50) is 23.5 nM.

For the origin of these results see patent US8481536B2, “Benzotriazine inhibitors of kinases” (TargeGen, Inc., priority 2004, dated 2013).
